Results taken from PMC9403976, “Elucidating the path to Plasmodium prolyl-tRNA synthetase inhibitors that overcome halofuginone resistance” (Nature Communications, 2022).
“And” between values parts separate entries of the source, which are not always exact repeats. Equal values may be shown once. Read-outs that look alike come from different tables or passages of the source.

Tests used:
P. falciparum Dd2-2D4 = assay: P. falciparum asexual blood stage (ABS) growth assay, SYBR Green, 72 h, wild-type parasites; format: cell-based, Plasmodium falciparum; conditions: Plasmodium falciparum, DD2; SI Fig 16b; values on -log scale; read-out: ABS - Dd2-2D4 (converted)
[1] = system: HFGR-I P. falciparum (elevated proline homeostasis and PfcProRS^L482H); assay: P. falciparum ABS growth assay, SYBR Green, 72 h, HFGR-I parasites; format: cell-based, Plasmodium falciparum; conditions: Log[inhibitor] (M) -6.638
Source text: Parasites were maintained under standard culture conditions as described previously[56],[57]. […] The P. falciparum Dd2 cell lines used in this study (Dd2-2D4, halofuginone-induced, and HFGR-I) have previously undergone whole genome sequencing in our labs. They were also routinely assayed and EC50 values determined using the ABS growth assay (see below) with a panel of standard antimalarial compounds, including halofuginone which has differential activity for the three Dd2 lines used in these experiments. Data were cross-referenced for consistency with literature reported values and data previously acquired in the lab.
This assay was performed as previously described. In short, P. falciparum erythrocytic-stage parasites at 1% parasitemia and 1% hematocrit in RPMI + 0.5% Albumax were seeded at 40 μL/well in 384-well plates with test compounds in triplicate, dose-response format with 10 μM dihydroartemisinin as a kill-control and blank (no compound) wells as a growth-control. […] After 72 h, growth was quantified by measuring fluorescence (Molecular Devices SpectraMax iD5) following SYBR Green 1 staining. Data were analyzed in Excel and plotted in PRISM (V. 8.4.3–9.1.0, GraphPad).

PfcProRS = target: T1, PfcProRS (Plasmodium falciparum, UniProt Q8I5R7); format: binding; conditions: for Normalized response, dose-response replicates (SI Fig 14): replicates 1-3; for PfcProRS -- best Kd: SI Fig 16a, values on -log scale
T1 construct: made in house; host or cells: E. coli SoluBL-21
T1 sequence (Q8I5R7 249-746): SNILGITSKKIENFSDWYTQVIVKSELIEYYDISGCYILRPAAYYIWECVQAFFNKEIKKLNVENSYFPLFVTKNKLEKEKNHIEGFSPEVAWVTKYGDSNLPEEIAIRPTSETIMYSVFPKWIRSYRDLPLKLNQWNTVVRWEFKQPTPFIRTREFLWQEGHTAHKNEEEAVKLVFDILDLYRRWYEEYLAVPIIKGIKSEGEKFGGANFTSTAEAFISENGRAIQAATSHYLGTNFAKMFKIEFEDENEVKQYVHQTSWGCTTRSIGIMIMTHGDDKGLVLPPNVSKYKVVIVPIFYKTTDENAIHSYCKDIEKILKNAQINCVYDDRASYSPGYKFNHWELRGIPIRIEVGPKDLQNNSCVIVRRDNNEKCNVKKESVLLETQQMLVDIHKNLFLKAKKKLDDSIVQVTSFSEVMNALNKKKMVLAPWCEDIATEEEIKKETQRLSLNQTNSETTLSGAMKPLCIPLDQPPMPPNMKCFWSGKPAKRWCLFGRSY

HsProRS = HsProRS (Homo sapiens, UniProt P07814); assay: TR-FRET ligand displacement assay with tracer MAT379 (CoraFluor-1-Halo and anti-His6 antibody formats); format: binding; set-up: made in house; host or cells: E. coli SoluBL-21
Chain of HsProRS (P07814 996-1512): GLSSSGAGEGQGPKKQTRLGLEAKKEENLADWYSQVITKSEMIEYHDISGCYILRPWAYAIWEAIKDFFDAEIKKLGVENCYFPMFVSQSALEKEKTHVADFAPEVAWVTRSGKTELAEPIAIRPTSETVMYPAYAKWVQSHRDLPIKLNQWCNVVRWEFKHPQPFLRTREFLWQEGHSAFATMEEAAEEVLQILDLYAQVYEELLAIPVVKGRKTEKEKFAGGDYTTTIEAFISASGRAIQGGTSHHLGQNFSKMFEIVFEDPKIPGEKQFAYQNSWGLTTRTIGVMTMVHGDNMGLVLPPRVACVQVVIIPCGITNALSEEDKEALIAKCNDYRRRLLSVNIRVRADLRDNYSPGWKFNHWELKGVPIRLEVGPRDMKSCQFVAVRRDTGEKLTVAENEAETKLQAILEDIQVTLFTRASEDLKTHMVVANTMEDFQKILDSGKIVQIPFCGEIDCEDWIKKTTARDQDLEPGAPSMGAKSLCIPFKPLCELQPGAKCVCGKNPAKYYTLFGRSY

[2] = HsProRS (KD [nM]) + 100 μM proline mean, + 100 μM proline

Row | SMILES | EC50 (P. falciparum Dd2-2D4) [nM] | Normalized response, dose-response replicates (SI Fig 14) (PfcProRS; Log[inhibitor] (M) -5.000) | Normalized response, dose-response replicates (SI Fig 14) (PfcProRS; Log[inhibitor] (M) -5.301) | Normalized response, dose-response replicates (SI Fig 14) (PfcProRS; Log[inhibitor] (M) -5.601) | Normalized response, dose-response replicates (SI Fig 14) (PfcProRS; Log[inhibitor] (M) -5.904) | Normalized response, dose-response replicates (SI Fig 14) (PfcProRS; Log[inhibitor] (M) -6.208) | Normalized response, dose-response replicates (SI Fig 14) (PfcProRS; Log[inhibitor] (M) -6.509) | Normalized response, dose-response replicates (SI Fig 14) (PfcProRS; Log[inhibitor] (M) -6.796) | Normalized response, dose-response replicates (SI Fig 14) (PfcProRS; Log[inhibitor] (M) -7.108) | Normalized response, dose-response replicates (SI Fig 14) (PfcProRS; Log[inhibitor] (M) -7.409) | Normalized response, dose-response replicates (SI Fig 14) (PfcProRS; Log[inhibitor] (M) -7.710) | Normalized response, dose-response replicates (SI Fig 14) (PfcProRS; Log[inhibitor] (M) -8.000) | Normalized response, dose-response replicates (SI Fig 14) (PfcProRS; Log[inhibitor] (M) -8.301) | Normalized response, dose-response replicates (SI Fig 14) (PfcProRS; Log[inhibitor] (M) -8.602) | Normalized response, dose-response replicates (SI Fig 14) (PfcProRS; Log[inhibitor] (M) -9.000) | Normalized response, dose-response replicates (SI Fig 14) (PfcProRS; Log[inhibitor] (M) -9.301) | PfcProRS -- best Kd (PfcProRS) | Kd (HsProRS; [2]) [nM] | other results
1 | CC(C)(C)OC(=O)NCCCCCC(=O)NC1CCN(C(=O)Nc2nccnc2C(=O)NC2Cc3ccccc3C2)CC1 [compound 41] | 2110 | 2.54E-01 and 1.79E-01 and 1.37E-01 | 2.59E-01 and 1.90E-01 and 1.97E-01 | 2.56E-01 and 2.59E-01 and 2.72E-01 | 5.14E-01 and 5.00E-01 and 4.61E-01 | 7.49E-01 and 5.18E-01 and 5.00E-01 | 8.38E-01 and 7.48E-01 and 7.12E-01 | 9.37E-01 and 8.75E-01 and 9.23E-01 | 9.89E-01 and 8.01E-01 and 8.98E-01 | 9.10E-01 and 9.82E-01 and 9.58E-01 | 9.67E-01 and 1.08E+00 and 8.83E-01 | 9.89E-01 and 1.01E+00 and 9.34E-01 | 1.15E+00 and 9.52E-01 and 9.87E-01 | 1.13E+00 and 1.02E+00 and 1.04E+00 | 9.78E-01 and 9.94E-01 and 1.01E+00 | 1.02E+00 and 9.71E-01 and 8.87E-01 | 6.740 | 561 | dose-response value, Replicates 1-3 (SI Fig 2f) [1]: 97; Kd (HsProRS; HsProRS - best Kd, SI Fig 16a, values on -log scale): 139 nM
2 | CC(C)(C)OC(=O)NCCCCCC(=O)NCC1CCN(C(=O)Nc2nccnc2C(=O)NC2Cc3ccccc3C2)CC1 [compound 43] | 3330 | 3.94E-01 and 2.57E-01 and 2.74E-01 | 4.70E-01 and 4.27E-01 and 4.95E-01 | 6.21E-01 and 6.23E-01 and 5.88E-01 | 7.25E-01 and 7.36E-01 and 7.34E-01 | 8.39E-01 and 7.98E-01 and 7.48E-01 | 9.01E-01 and 9.26E-01 and 9.21E-01 | 8.44E-01 and 9.34E-01 and 8.61E-01 | 8.07E-01 and 9.41E-01 and 7.86E-01 | 8.06E-01 and 8.12E-01 and 9.38E-01 | 9.31E-01 and 8.84E-01 and 7.70E-01 | 9.59E-01 and 9.87E-01 and 9.57E-01 | 1.01E+00 and 8.79E-01 and 9.74E-01 | 9.04E-01 and 9.28E-01 and 9.93E-01 | 8.86E-01 and 8.79E-01 and 9.68E-01 | 8.43E-01 and 8.23E-01 and 8.26E-01 | 6.495 | 2280 | Kd (HsProRS; HsProRS (KD [nM]) mean, no added proline/ATP (-)): 611 nM
